Experimental data from US10815224B2, “Monocyclic heteroaryl substituted compounds” (Bristol-Myers Squibb Company, priority 2016, dated 2020).

Target: T1, PAR4 (Homo sapiens, UniProt Q96RI0)
T1 construct: expressed in transfected cells; host or cells: HEK293 PAR4 Clone 1.2A (BMS Arctic ID 383940)
T1 sequence (Q96RI0 18-385): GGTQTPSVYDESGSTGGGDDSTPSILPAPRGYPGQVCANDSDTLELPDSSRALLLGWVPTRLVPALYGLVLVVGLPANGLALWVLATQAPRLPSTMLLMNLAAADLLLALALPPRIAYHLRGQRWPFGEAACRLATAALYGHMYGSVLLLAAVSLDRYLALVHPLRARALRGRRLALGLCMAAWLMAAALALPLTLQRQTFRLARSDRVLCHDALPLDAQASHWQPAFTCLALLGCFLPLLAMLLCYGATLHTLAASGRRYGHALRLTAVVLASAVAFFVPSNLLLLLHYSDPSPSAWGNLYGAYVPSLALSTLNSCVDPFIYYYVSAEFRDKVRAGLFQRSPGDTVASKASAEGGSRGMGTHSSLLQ
Experiment: PAR4 FLIPR assay: calcium mobilization in PAR4-expressing HEK293 cells
Type: cell-based
Settings: not given
Source text: The FLIPR assay is an exemplary in vitro assay for measuring the activity of the PAR4 antagonists of the present invention. In this assay, intracellular calcium mobilization is induced in PAR4 expressing cells by a PAR4 agonist and calcium mobilization is monitored.
HEK293 cells stably expressing PAR4 were generated by a standard method of transfection of human PAR4 (F2R23) cDNA expression vector and selected based on PAR4 protein expression or mRNA expression. […] Therefore, the same cells were also used to determine selectivity against PAR1 and agonist activity for both receptors.
FLIPR-based calcium mobilization assay in HEK293 cells was used to measure PAR4 antagonism, agonism, and selectivity against PAR1. […] Counter screens for agonist activity and PAR1 antagonist activity were also performed. […] Cells were plated overnight prior to the experiment in a black 384-well Purecoat Amine clear bottom plate (Becton Dickinson Biosciences, San Jose, Calif.) at 10,000 cells/well in 30 μL growth medium and incubated in a humidified chamber at 37° C. with 5% CO2 overnight. Prior to compound addition, the cell medium was replaced with 40 μL of 1× calcium and magnesium-containing Hank's Balanced Saline Solution (HBSS) (with 20 mM HEPES) and 1:1000 diluted fluorescent calcium indicator (Codex Biosolutions, Gaithersburg, Md.). After a 30 minute incubation period at 37° C., and a further 30 minute incubation and equilibration period at room temperature, 20 μL test compound (diluted in 1×HBSS buffer) was added at various concentrations at 0.17% dimethyl sulfoxide (DMSO) final concentration. Changes in fluorescence intensity were measured using a Functional Drug Screening System (FDSS, Hamamatsu, Japan) to determine agonist activities. The cells were then incubated for 30 minutes at room temperature followed by addition of 20 μL of agonist peptide for antagonist activity measurement. […] Compound potency was derived from 11-point concentration-response curves.

Row | SMILES | IC50 [nM]
1 | Cc1cc(-c2ncc(CO)s2)c2ncc(OC(F)F)nc2c1 [Example 39, (2-(2-(difluoromethoxy)-7-methylquinoxalin-5-yl)thiazol-5-yl)methanol] | 2000
2 | Cc1cc(-c2ncc(-c3ccc4cc[nH]c4c3)s2)c2ncc(OC(F)F)nc2c1 [Example 42, 2-(2-(difluoromethoxy)-7-methylquinoxalin-5-yl)-5-(1H-indol-6-yl)thiazole] | 81
3 | COc1cnc2c(-c3ncc(-c4ccccc4C(F)F)s3)cc(C)cc2n1 [Example 45, 5-(2-(difluoromethyl)phenyl)-2-(2-methoxy-7-methylquinoxalin-5-yl)thiazole] | 25
4 | COCc1cnc2c(-c3ncc(-c4ccn[nH]4)s3)cc(C)cc2n1 [Example 48, 2-(2-(methoxymethyl)-7-methylquinoxalin-5-yl)-5-(1H-pyrazol-5-yl)thiazole] | 3.1
5 | COCc1cnc2c(-c3ncc(-c4cc(F)ccc4O)s3)cc(C)cc2n1 [Example 50, 4-fluoro-2-(2-(2-(methoxymethyl)-7-methylquinoxalin-5-yl)thiazol-5-yl)phenol] | 5.7
6 | COCc1cnc2c(-c3ncc(-c4ccc(OC)cn4)s3)cc(C)cc2n1 [Example 53, 2-(2-(methoxymethyl)-7-methylquinoxalin-5-yl)-5-(5-methoxypyridin-2-yl)thiazole] | 290

The next lines start with the values.

Row | IC50 [nM] | SMILES
7 | 820 | Cc1cc(-c2ncc(-c3cccc4[nH]ccc34)s2)c2ncc(OC(F)F)nc2c1 [Example 38, 2-(2-(difluoromethoxy)-7-methylquinoxalin-5-yl)-5-(l H-indol-4-yl)thiazole]
8 | 23 | Cc1cc(-c2ncc(-c3ccn[nH]3)s2)c2ncc(OC(F)F)nc2c1 [Example 40, 2-(2-(difluoromethoxy)-7-methylquinoxalin-5-yl)-5-(1H-pyrazol-5-yl)thiazole]
9 | 330 | Cc1cc(-c2ncc(-c3ccncc3)s2)c2ncc(OC(F)F)nc2c1 [Example 43, 2-(2-(difluoromethoxy)-7-methylquinoxalin-5-yl)-5-(pyridin-4-yl)thiazole]
10 | 79 | Cc1cc(-c2ncc(-c3ccccn3)s2)c2ncc(OC(F)F)nc2c1 [Example 44, 2-(2-(difluoromethoxy)-7-methylquinoxalin-5-yl)-5-(pyridin-2-yl)thiazole]
11 | 14 | COc1cnc2c(-c3ncc(-c4cc(O)c(F)c(F)c4)s3)cc(C)cc2n1 [Example 46, 2,3-difluoro-5-(2-(2-methoxy-7-methylquinoxalin-5-yl)thiazol-5-yl)phenol]
12 | 53 | COc1cnc2c(-c3nc(C(F)(F)F)c(C(=O)C4CCCCC4)s3)cc(C)cc2n1 [Example 47, Cyclohexyl(2-(2-methoxy-7-methylquinoxalin-5-yl)-4-(trifluoromethyl)thiazol-5-yl) methanone]
13 | 19 | COCc1cnc2c(-c3ncc(-c4cccc(O)c4)s3)cc(C)cc2n1 [Example 49, 3-(2-(2-(methoxymethyl)-7-methylquinoxalin-5-yl)thiazol-5-yl)phenol]
14 | 7.1 | Cc1cc(-c2ncc(-c3cccc(O)c3)s2)c2ncc(OC(F)F)nc2c1 [Example 51, 3-(2-(2-(difluoromethoxy)-7-methylquinoxalin-5-yl)thiazol-5-yl)phenol]
15 | 550 | COc1ccc(-c2cnc(-c3cc(C)cc4nc(OC)cnc34)s2)nc1 [Example 52, 2-(2-methoxy-7-methylquinoxalin-5-yl)-5-(5-methoxypyridin-2-yl)thiazole]

Same assay, conditions: HEK293 cells expressing human PAR4; calcium mobilization induced by H-Ala-Phe(4-F)-Pro-Gly-Trp-Leu-Val-Lys-Asn-Gly-NH2

Row | IC50 [nM] | SMILES
16 | 450 | Cc1cc(-c2nc(C(C)(C)C)cs2)c2ncc(OC(F)F)nc2c1 [Example 41]

Target: T2, protease-activated receptor type 4 (PAR4) (Homo sapiens, UniProt Q96RI0)
T2 sequence (Q96RI0 18-385): T1 sequence (Q96RI0 18-385)
Experiment: not given
Settings: abstract of Lee et al. 2001; cited from earlier work

Row | SMILES | Inhibition of PAR4-dependent platelet activation
17 | CCOC(=O)c1ccc(-c2nn(Cc3ccccc3)c3ccccc23)cc1 [YD-3, ethyl 4-(1-benzyl-1H-indazol-3-yl)benzoate] | selective and potent inhibitor

Tested on: ACS patients
Experiment: not given
Settings: TRACER phase III trial; cited from earlier work

Row | SMILES | Cardiovascular events | Risk of major bleeding
18 | CCOC(=O)N[C@@H]1CC[C@@H]2[C@@H](C1)C[C@H]1C(=O)O[C@H](C)[C@H]1[C@H]2/C=C/c1ccc(-c2cccc(F)c2)cn1 [vorapaxar] | did not significantly reduce cardiovascular events | significantly increased the risk of major bleeding
